Tests used:
[1] = test system: radiation-induced mucositis; test: Radiation-induced mucositis in the lip of irradiated mice, total mucositis score (erythema + edema, Parkins scoring); type: in vivo, C57BL/6 female mice; design: key to Total Mucositis Score After 11 days: combined erythema + edema score (Parkins), maximum 7; settings: for Score (total mucositis score): amifostine 50 mg/ml, 200 mg/Kg s.c. 30 minutes before 16.5 Gy irradiation, maximum score 7
Excerpt: One of the major limiting acute toxicities associated with radiotherapy is radiation-induced mucositis. The ability to reduce the duration and severity of acute mucosal reactions is of particular importance in the radiotherapy and/or chemotherapy of head and neck cancer. Therefore, the radioprotective effects of amifostine were examined in an experimental model of mucositis. In particular, the study compared the radioprotective effects of amifostine by subcutaneous (s.c.) and intraperitoneal (i.p.) administration.
(§1) C57BL/6 female mice of 8-10 weeks old were used and fed with semi liquid food. The mice were randomly divided into treatment groups of five mice each. The treatment groups were, for example,
(§2) Unanesthetized mice were maintained in supine position and irradiated exclusively on the tip of their mouth. […] Irradiation was performed with a RT 250 Philips apparatus delivering 1.98 Gy per min. (200 Kv, 20 mA, filter of 0.2 mm de Cu). During irradiation, a constant normobaric air renewal was maintained. The effects of amifostine were evaluated using a single dose of 16.5 Gy.
(§3) Amifostine was dissolved in appropriate diluent to achieve a final concentration of 50 mg/ml immediately before injections. Amifostine was dissolved in 0.075% sodium deoxycholate to achieve a final concentration of 50 mg/ml. Amifostine was dissolved in a mixture of 2% EDTA and 2% sorbitol to achieve a final concentration of 50 mg/ml. Amifostine was dissolved in 0.2% EDTA to achieve a final concentration of 50 mg/ml. Subcutaneous injections (200 mg/Kg) were conducted 30 minutes before irradiation. Where a control group was used, a first control group was injected with the saline solution and subsequently irradiated, and a second control group was injected with the saline solution, but was not irradiated.
(§4) The effects of irradiation on lip mucosa were evaluated using the scoring system described by Parkins et al. (1983, Radiother. Oncol. 1:159-165). Body weight of the treated mice were scored periodically after treatment. Reduction in body weight was used as an objective indication of the severity of mucositis induced by irradiation, presumably resulting from the inability of the animals to eat. In this model, the acute reactions peaked on day 10 to 11 after irradiation.
Other symptoms of mucositis such as mucosal erythema and edema were also recorded. These symptoms developed more slowly than weight loss following irradiation. Mucosal erythema and edema were scored separately, and could be analyzed as separate scores or as a combined score yielding a maximum score of 7. Mouse lip mucosal erythema was scored according to Table 1.
Mucosal edema (swelling) of the lips was scored according to table 2.
(§5) These examples describe pharmaceutical formulations of the invention comprising amifostine in combination with surfactants and/or hydrotropes and/or chelating agents. The pharmaceutical formulations were administered, and the effects of irradiation on lip mucosa evaluated using the methods described in the first Example above.

[2] = Body weight of irradiated mice as objective indicator of mucositis; type: in vivo, C57BL/6 female mice; settings: for Weight: amifostine 50 mg/ml, 200 mg/Kg s.c. 30 minutes before 16.5 Gy irradiation
Description: as §1, §2, §3, §4, §5

SMILES: NCCCNCCSP(=O)(O)O [Amifostine, S-2-(3-aminopropylamino)ethyl dihydrogen phosphorothioate]
- Score (total mucositis score) ([1]; Day 0): 0.0
- Score (total mucositis score) ([1]; Day 6): 0.5
- Score (total mucositis score) ([1]; Day 10): 1.7
- Score (total mucositis score) ([1]; Day 11): 1.8
- Score (total mucositis score) ([1]; Day 12): 1.3
- Score (total mucositis score) ([1]; Day 18): 0.4
- Score (total mucositis score) ([1]; Day 28): 0.0
- Weight ([2]; Day 0): 16.4 g
- Weight ([2]; Day 6): 15.8 g
- Weight ([2]; Day 10): 17.4 g
- Weight ([2]; Day 11): 17.8 g
- Weight ([2]; Day 12): 17.6 g
- Weight ([2]; Day 18): 18.4 g
- Weight ([2]; Day 28): 19.5 g
- Effect on body weight reduction after irradiation (in words) ([2]; s.c. administration before irradiation, compared with other groups): Less severe reductions in body weight

SMILES: NCCCNCCS [WR-1065, S-2-(3-aminopropylamino)ethanethiol]
- Total Mucositis Score After 11 days ([1]; after 11 days, irradiated mice, methods of Example 1): 5.1
- % Weight Change After 6 Days ([2]; after 6 days, irradiated mice, methods of Example 1): −8.7%

From patent publication US6489312B1, “Pharmaceutical formulations comprising aminoalkyl phosphorothioates” (MedImmune Oncology, Inc., priority 1999, dated 2002)
